According to the NIST ThermoML archive (doi:10.1021/je800981d):
Where “and” joins values, the source holds several entries; their conditions need not be identical. Identical values can stand only once.

Tests used:
[1] = refractive index (Na D-line) (dimensionless); xn = mol fraction of the nth substance listed; conditions: 298.15 K, 101 kPa, Liquid, Standard Abbe refractometry
[2] = xn = mol fraction of the nth substance listed; conditions: 101 kPa, Liquid
[3] = Liquid
[4] = refractive index (Na D-line) (dimensionless); conditions: 101.33 kPa, Liquid, Standard Abbe refractometry

CCOS(=O)(=O)[O-].CC[n+]1ccccc1 [1-ethylpyridinium ethyl sulfate] + CCO
[1]
Conditions	refractive index
x2 = 0	1.50252
x2 = 0.0476	1.50313
x2 = 0.1993	1.49585
x2 = 0.2992	1.48987
x2 = 0.5009	1.47321
x2 = 0.6033	1.46152
x2 = 0.7023	1.44693
x2 = 0.8016	1.42734
x2 = 0.899	1.40078
x2 = 0.9476	1.38342

[2]
Conditions	mass density, 298.15 K [kg/m3]	mass density, 313.15 K [kg/m3]	mass density, 328.15 K [kg/m3]	speed of sound, 298.15 K [m/s]	speed of sound, 313.15 K [m/s]	speed of sound, 328.15 K [m/s]	viscosity, 298.15 K [mPa·s]	viscosity, 313.15 K [mPa·s]	viscosity, 328.15 K [mPa·s]
x2 = 0	1252	1242.1	1232.3	1711	1676	1641	126.3	57.6	38.6
x2 = 0.0476	1245.3	1235.3	1225.3	1700	1665	1631	103.3	50.3	34.14
x2 = 0.1993	1220.8	1210.8	1200.7	1661	1625	1591	58.4	33.9	22.38
x2 = 0.2992	1201.2	1190.9	1180.7	1630	1593	1558	40.3	23.51	15.2
x2 = 0.5009	1147.2	1136.4	1125.9	1546	1508	1472	17.27	11.39	8.015
x2 = 0.6033	1109.2	1098.4	1087.7	1491	1453	1388	10.79	7.07	5.198
x2 = 0.7023	1062	1051	1039.9	1428	1388	1350	6.63	4.8	3.642
x2 = 0.8016	999.9	988.1	976.6	1349	1308	1267	3.947	2.943	2.287
x2 = 0.899	915.5	903.3	890.1	1258	1214	1170	2.244	1.717	1.344
x2 = 0.9476	860.1	847.5	834.1	1206	1160	1113	1.641	1.261	0.987

CCO [ethanol]
[3], 101 kPa
Conditions	mass density [kg/m3]	speed of sound [m/s]	viscosity [mPa·s]
298.15 K	785.5	1146	1.082
313.15 K	772	1093	0.827
328.15 K	758.6	1043	0.641

Conditions	refractive index
[4], 298.15 K	1.36023

CCOS(=O)(=O)[O-].CC[n+]1ccccc1 [1-ethylpyridinium ethyl sulfate]
[3]
Conditions	mass density, 101.33 kPa [kg/m3]	speed of sound, 101.33 kPa [m/s]	viscosity, 101 kPa [mPa·s]	viscosity, 101.33 kPa [mPa·s]
298.15 K	1252	1711	–	126.3
303.15 K	1248.7	1699	–	93
308.15 K	1245.4	1687	–	72.1
313.15 K	1242.1	1676	–	57.6
318.15 K	1238.8	1664	–	46.4
323.15 K	1235.6	1653	–	38.6
328.15 K	1232.3	1641	38.6	32.53
333.15 K	1229.1	1630	–	27.78
338.15 K	1225.9	1619	–	23.9
343.15 K	1222.7	1608	–	20.71

[4]
Conditions	refractive index
298.15 K	1.50525 and 1.50252
303.15 K	1.50394
308.15 K	1.50258
313.15 K	1.5012
318.15 K	1.49976
323.15 K	1.4985
328.15 K	1.4972
333.15 K	1.49587
338.15 K	1.49454
343.15 K	1.49309

CCCO [propan-1-ol]
[3], 101 kPa
Conditions	mass density [kg/m3]	speed of sound [m/s]	viscosity [mPa·s]
298.15 K	799.6	1207	2.017
313.15 K	787.4	1155	1.43
328.15 K	774.8	1105	1.041

Conditions	refractive index
[4], 298.15 K	1.3831

CCO [ethanol] + CCOS(=O)(=O)[O-].CC[n+]1ccccc1
Conditions	refractive index
[1], x1 = 1	1.36023

[2], x1 = 1
Conditions	mass density [kg/m3]	speed of sound [m/s]	viscosity [mPa·s]
298.15 K	785.5	1146	1.082
313.15 K	772	1093	0.827
328.15 K	758.6	1043	0.641

CCOS(=O)(=O)[O-].CC[n+]1ccccc1 [1-ethylpyridinium ethyl sulfate] + CCCO
[1]
Conditions	refractive index
x2 = 0	1.50525
x2 = 0.0814	1.50137
x2 = 0.1994	1.49499
x2 = 0.3084	1.48804
x2 = 0.4035	1.48081
x2 = 0.5077	1.47142
x2 = 0.6013	1.46126
x2 = 0.7016	1.44802
x2 = 0.8004	1.43181
x2 = 0.9002	1.411
x2 = 0.9521	1.39773

[2]
Conditions	mass density, 298.15 K [kg/m3]	mass density, 313.15 K [kg/m3]	mass density, 328.15 K [kg/m3]	speed of sound, 298.15 K [m/s]	speed of sound, 313.15 K [m/s]	speed of sound, 328.15 K [m/s]	viscosity, 298.15 K [mPa·s]	viscosity, 313.15 K [mPa·s]	viscosity, 328.15 K [mPa·s]
x2 = 0	1252	1242.1	1232.3	1711	1676	1641	126.3	57.6	38.6
x2 = 0.0814	1237.2	1227.4	1217.6	1689	1654	1619	95.2	48	32.49
x2 = 0.1994	1212.7	1202.7	1192.7	1649	1613	1578	62.7	34.23	23.31
x2 = 0.3084	1186.1	1176.1	1165.9	1608	1572	1537	43.6	25.21	17.27
x2 = 0.4035	1159	1148.5	1138.3	1565	1528	1493	30.03	18.31	12.21
x2 = 0.5077	1123.8	1113	1102.6	1516	1478	1440	20.12	12.91	8.898
x2 = 0.6013	1085.8	1074.8	1064.2	1466	1427	1388	13.68	9.161	6.523
x2 = 0.7016	1036.7	1025.2	1014.3	1409	1367	1327	8.84	6.131	4.494
x2 = 0.8004	976.9	965.3	954.1	1347	1304	1262	5.597	3.988	2.977
x2 = 0.9002	900.6	888.9	877.1	1279	1234	1189	3.483	2.507	1.874
x2 = 0.9521	852.4	840.3	828.1	1244	1195	1147	2.676	1.921	1.411

CCCO [propan-1-ol] + CCOS(=O)(=O)[O-].CC[n+]1ccccc1
Conditions	refractive index
[1], x1 = 1	1.3831

[2], x1 = 1
Conditions	mass density [kg/m3]	speed of sound [m/s]	viscosity [mPa·s]
298.15 K	799.6	1207	2.017
313.15 K	787.4	1155	1.43
328.15 K	774.8	1105	1.041
